What follows are cell lines tested with CC(O)(CS(=O)(=O)c1ccc(F)cc1)C(=O)Nc1ccc(C#N)c(C(F)(F)F)c1 [Bicalutamide] + CC1(C)CCC(c2ccc(Cl)cc2)=C(CN2CCN(c3ccc(C(=O)NS(=O)(=O)c4ccc(N[C@H](CCN5CCOCC5)CSc5ccccc5)c(S(=O)(=O)C(F)(F)F)c4)cc3)CC2)C1 [Navitoclax] (partner 0.5 µM) (assay: relative viability (nuclei count vs DMSO), 5 days (fraction); higher = more cells survive). Settings: first compound 0.08 µM.
Procedure, shortened: (§1)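 A single step with final 0.05% Triton X-100, 1% formaldehyde and 1 ug/ml Hoechst fixed the cells and stained nuclei 5 days after treatment. Lung cancer cell lines in 1536-well plates had been treated by pin tool the day after seeding with one drug alone or a fixed anchor-drug dose plus five library-drug doses (not always all listed) in √10 steps, and nuclei were counted on 4× images. Relative viability is the ratio of nuclei in treated wells to nuclei in vehicle wells, taken as the median of duplicate plates.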

Compared with NCI-H838, NCI-H1650 is higher in relative viability: 1.1 for the first, 1.31 for the second.

First: EBC-1
Second: NCI-H1703
The relative viability of the first is lower: 0.477 for the first, 0.998 for the second.

Going from NCI-H2009 to PC-14, the relative viability falls from 1.29 to 0.948.

Going from NCI-H596 to NCI-H2228, the relative viability falls from 1.03 to 0.636.

First: EMC-BAC-2
Second: NCI-H2087
The relative viability of the first is higher: 1.19 for the first, 1.15 for the second.

Going from Calu-6 to HCC-366, the relative viability rises from 0.895 to 1.08.

Going from NCI-H1666 to NCI-H647, the relative viability rises from 0.939 to 1.15.

Going from LK-2 to NCI-H2126, the relative viability rises from 0.844 to 0.929.

First: SK-MES-1
Second: H3255
The relative viability of the first is higher: 1.13 for the first, 0.524 for the second.

Compared with COR-L23, COR-L 105 is lower in relative viability: 1.17 for the first, 0.694 for the second.

First: IA-LM
Second: LOU-NH91
The relative viability of the first is higher: 0.945 for the first, 0.676 for the second.

Compared with ChaGo-K-1, NCI-H2170 is lower in relative viability: 0.983 for the first, 0.553 for the second.

Compared with NCI-H3122, HOP-62 is higher in relative viability: 0.991 for the first, 1.03 for the second.

First: HCC-44
Second: A549
The relative viability of the first is lower: 0.921 for the first, 1.33 for the second.

Going from LU99A to BEN, the relative viability falls from 0.756 to 0.0525.

Going from NCI-H727 to NCI-H1299, the relative viability rises from 0.457 to 1.02.

For NCI-H1792, the relative viability was 0.5.

Same assay, conditions: first compound 0.253 µM

Going from NCI-H838 to NCI-H1650, the relative viability rises from 1.07 to 1.19.

Compared with EBC-1, NCI-H1703 is higher in relative viability: 0.491 for the first, 0.985 for the second.

Compared with NCI-H2009, NCI-H1993 is lower in relative viability: 1.24 for the first, 0.896 for the second.

Going from PC-14 to NCI-H596, the relative viability falls from 0.944 to 0.847.

Compared with NCI-H2228, EMC-BAC-2 is higher in relative viability: 0.863 for the first, 1.11 for the second.

Going from NCI-H2087 to Calu-6, the relative viability falls from 1.09 to 0.827.

First: HCC-366
Second: NCI-H1666
The relative viability of the first is lower: 1.03 for the first, 1.14 for the second.

First: NCI-H647
Second: LK-2
The relative viability of the first is higher: 1.09 for the first, 0.798 for the second.

Compared with NCI-H2126, SK-MES-1 is higher in relative viability: 0.806 for the first, 1.19 for the second.

Compared with H3255, COR-L23 is higher in relative viability: 0.489 for the first, 1.02 for the second.

First: COR-L 105
Second: IA-LM
The relative viability of the first is lower: 0.696 for the first, 0.876 for the second.

Compared with LOU-NH91, ChaGo-K-1 is higher in relative viability: 0.545 for the first, 1.02 for the second.

First: NCI-H2170
Second: NCI-H3122
The relative viability of the first is lower: 0.506 for the first, 1.01 for the second.

Going from HOP-62 to HCC-44, the relative viability falls from 1.12 to 0.949.

Going from A549 to LU99A, the relative viability falls from 1.16 to 0.779.

Compared with BEN, NCI-H727 is higher in relative viability: 0.0535 for the first, 0.415 for the second.

Compared with NCI-H1299, NCI-H1792 is lower in relative viability: 1.04 for the first, 0.619 for the second.

Same assay, conditions: first compound 0.8 µM

Going from NCI-H838 to NCI-H1650, the relative viability falls from 1.25 to 1.16.

Going from EBC-1 to NCI-H1703, the relative viability rises from 0.372 to 1.45.

Going from NCI-H2009 to NCI-H1993, the relative viability falls from 1.14 to 0.912.

Going from PC-14 to NCI-H596, the relative viability rises from 1.02 to 1.24.

Compared with NCI-H2228, EMC-BAC-2 is higher in relative viability: 0.856 for the first, 1.21 for the second.

First: NCI-H2087
Second: Calu-6
The relative viability of the first is higher: 1.1 for the first, 0.842 for the second.

Going from HCC-366 to NCI-H1666, the relative viability falls from 1.17 to 0.889.

Going from NCI-H647 to LK-2, the relative viability falls from 1.46 to 1.18.

Compared with NCI-H2126, SK-MES-1 is higher in relative viability: 0.873 for the first, 1.26 for the second.

Compared with H3255, COR-L23 is higher in relative viability: 0.631 for the first, 1.11 for the second.

Going from COR-L 105 to IA-LM, the relative viability rises from 0.726 to 0.99.

Going from LOU-NH91 to ChaGo-K-1, the relative viability rises from 0.865 to 1.17.

Going from NCI-H2170 to NCI-H3122, the relative viability rises from 0.661 to 1.02.

Going from HOP-62 to HCC-44, the relative viability falls from 1.03 to 0.924.

Going from A549 to LU99A, the relative viability falls from 1.36 to 1.01.

Going from BEN to NCI-H727, the relative viability rises from 0.0851 to 0.405.

Compared with NCI-H1299, NCI-H1792 is lower in relative viability: 1.03 for the first, 0.77 for the second.

Same assay, conditions: first compound 2.53 µM

Compared with NCI-H838, NCI-H1650 is higher in relative viability: 0.854 for the first, 1.22 for the second.

Compared with EBC-1, NCI-H1703 is higher in relative viability: 0.296 for the first, 0.484 for the second.

First: NCI-H2009
Second: NCI-H1993
The relative viability of the first is higher: 1.08 for the first, 1.02 for the second.

Going from PC-14 to NCI-H596, the relative viability rises from 1.08 to 1.15.

First: NCI-H2228
Second: EMC-BAC-2
The relative viability of the first is lower: 0.959 for the first, 1.16 for the second.

Compared with NCI-H2087, Calu-6 is lower in relative viability: 0.974 for the first, 0.705 for the second.

Going from HCC-366 to NCI-H1666, the relative viability falls from 1.02 to 0.93.

Compared with NCI-H647, LK-2 is lower in relative viability: 1.18 for the first, 0.841 for the second.

Going from NCI-H2126 to SK-MES-1, the relative viability rises from 0.847 to 1.17.

Going from H3255 to COR-L23, the relative viability rises from 0.4 to 0.898.

Going from COR-L 105 to IA-LM, the relative viability rises from 0.703 to 0.751.

Going from LOU-NH91 to ChaGo-K-1, the relative viability falls from 0.818 to 0.793.

First: NCI-H2170
Second: NCI-H3122
The relative viability of the first is lower: 0.591 for the first, 1.03 for the second.

HOP-62 and HCC-44 are the same in relative viability: 0.982 for the first, 0.982 for the second.

First: A549
Second: LU99A
The relative viability of the first is higher: 1.08 for the first, 0.742 for the second.

Compared with BEN, NCI-H727 is higher in relative viability: 0.0653 for the first, 0.373 for the second.

Compared with NCI-H1299, NCI-H1792 is lower in relative viability: 1.04 for the first, 0.674 for the second.

What follows are cell lines tested with C(C(=O)C(=O)O)Br [Bromopyruvate] + CC1(C)CCC(c2ccc(Cl)cc2)=C(CN2CCN(c3ccc(C(=O)NS(=O)(=O)c4ccc(N[C@H](CCN5CCOCC5)CSc5ccccc5)c(S(=O)(=O)C(F)(F)F)c4)cc3)CC2)C1 [Navitoclax] (partner 0.5 µM) in the same assay as above. Settings: first compound 1 µM.
Procedure, shortened: as §1

First: NCI-H838
Second: NCI-H1650
The relative viability of the first is higher: 1.11 for the first, 1.09 for the second.

First: EBC-1
Second: NCI-H1703
The relative viability of the first is lower: 0.448 for the first, 1.06 for the second.

First: NCI-H2009
Second: NCI-H1993
The relative viability of the first is higher: 1.15 for the first, 1.02 for the second.

Going from PC-14 to NCI-H596, the relative viability falls from 1.02 to 0.871.

Going from NCI-H2228 to EMC-BAC-2, the relative viability rises from 0.936 to 1.02.

Going from NCI-H2087 to Calu-6, the relative viability falls from 0.974 to 0.939.

First: HCC-366
Second: NCI-H1666
The relative viability of the first is higher: 1.04 for the first, 0.957 for the second.

First: NCI-H647
Second: LK-2
The relative viability of the first is higher: 1.17 for the first, 0.9 for the second.

With NCI-H2126 the relative viability was 0.827.
